According to US10945994B2, “Combinations comprising a pyrrolidine-2,5-dione IDO1 inhibitor and an anti-body” (Pfizer Inc., priority 2015, dated 2021):

Columns and labels:
mouse TDO2 = mouse TDO2 (Mus musculus (Mouse), UniProt P48776); assay: TDO2 activity assay in P815 mouseTDO2 clone 12 cells; assay type: cell-based
Procedure: P815 mTDO2 c112 cells were generated as described in Pilotte et al, Proc Natl Acad Sci, 109(7): 2497-2502 (2012). They were seeded in 96-well plates (50,000 cells/well), treated with increasing concentrations of compounds and incubated for 16-18 h. Kynurenine concentrations were determined as described above. The reaction was run with single replicate.

IDO1 [1] = target: T1, IDO1 (Homo sapiens (Human), UniProt P14902); assay: Human whole blood assay (+ IFNγ/LPS); assay type: cell-based; settings: conversion with unbound fraction in whole blood 0.419; read-out: unbound IC90, human whole blood
T1 sequence (P14902 whole entry): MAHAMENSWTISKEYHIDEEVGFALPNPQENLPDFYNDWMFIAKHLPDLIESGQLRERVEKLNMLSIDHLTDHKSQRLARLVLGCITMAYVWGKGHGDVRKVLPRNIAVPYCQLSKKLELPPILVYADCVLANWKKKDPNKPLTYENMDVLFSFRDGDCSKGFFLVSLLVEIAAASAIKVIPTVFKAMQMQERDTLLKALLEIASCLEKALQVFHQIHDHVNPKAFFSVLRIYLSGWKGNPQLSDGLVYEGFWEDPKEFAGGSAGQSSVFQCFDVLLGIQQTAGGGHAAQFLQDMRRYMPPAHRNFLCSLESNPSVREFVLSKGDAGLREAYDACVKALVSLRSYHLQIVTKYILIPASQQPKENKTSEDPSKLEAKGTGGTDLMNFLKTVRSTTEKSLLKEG
Procedure: Human whole blood was collected in sodium heparin and gently mixed. Then 25 mg/mL LPS (Sigma) and 100 ng/mL. IFNg (R&D) was added and transferred immediately to a 96-well U bottom plate, 200 mL per well. […] The final DMSO concentration was 0.5%. Following overnight incubation at 37° C., a 30 mL aliquot was precipitated with 270 mL acetonitrile/HPLC water (70:30), vortexed vigorously, and centrifuged at 3220×g for 15 minutes at 10° C. An aliquot of the supernatant organic solution was diluted in 0.1% Formic acid and spiked with stable labeled isotopes of kynurenine and tryptophan as internal standards prior to analysis. Kynurenine inhibition was determined by dividing the drug treated internal standard adjusted kynurenine counts by the positive control internal standard adjusted value. The no drug treated sample containing DMSO was used as the positive control. […] The IC50 and IC90 calculations were conducted in GraphPad Prism version 6.03.
In order to determine compound potency in a human cellular system, human whole blood was collected from 9 subjects. […] The unbound inhibitor IC50 and IC90 values were computed by applying a conversion for the unbound fraction value in whole blood, 0.419.

[2] = system: IDO1-expressing SKOV3 cells co-cultured with human PBMC; assay: T cell - SKOV3 co-culture assay with human serum (II.9); assay type: cell-based; settings: SK-OV-3, read-out: T-cell proliferation in SKOV3 co-culture system (50% serum) IDO1 IC50 ± SD (n)
Procedure: Three different concentrations of human serum (10%, 25% or 50%) were used to mimic the consequences of protein binding in human. […] T cell proliferation was measured by incorporation of ^3H-thymidine after 48 h of co-culture. IC50 of T cell proliferation, tryptophan (Trp) decrease and kynurenine (Kyn) increase were determined. FIG. 7D illustrates Trp to Kyn conversion in 10% HS. […] FIG. 7F illustrates Trp to Kyn conversion in 50% HS. Tryptophan and kynurenine concentrations in supernatant were assessed using LC-MS/MS after 24 h of co-culture. […]
Human peripheral blood mononuclear cells were isolated from buffy coats, purified by density gradient centrifugation on Lymphoprep™ (StemCell), stimulated with CD3/CD28 beads (Invitrogen) and hIL-2 (Novartis) in IMDM with 10%, 25% or 50% of HS, for 15 min and then added to the SKOV3 plates. […] After an incubation of 24 h, the tryptophan and kynurenine concentrations in conditioned medium were assessed using LC-MS/MS. ^3H-thymidine was added to the co-cultures for another 24 h incubation period. Thymidine incorporation was measured using a TopCount counter (Perkin Elmer). Data were fitted and IC50 determined by using the Prism™ software (GraphPad software Inc.).

TDO2 [3] = target: T2, TDO2 (Homo sapiens (Human), UniProt P48775); assay: TDO2 activity assay in A172 and THP-1 cells; assay type: cell-based
T2 sequence (P48775 whole entry): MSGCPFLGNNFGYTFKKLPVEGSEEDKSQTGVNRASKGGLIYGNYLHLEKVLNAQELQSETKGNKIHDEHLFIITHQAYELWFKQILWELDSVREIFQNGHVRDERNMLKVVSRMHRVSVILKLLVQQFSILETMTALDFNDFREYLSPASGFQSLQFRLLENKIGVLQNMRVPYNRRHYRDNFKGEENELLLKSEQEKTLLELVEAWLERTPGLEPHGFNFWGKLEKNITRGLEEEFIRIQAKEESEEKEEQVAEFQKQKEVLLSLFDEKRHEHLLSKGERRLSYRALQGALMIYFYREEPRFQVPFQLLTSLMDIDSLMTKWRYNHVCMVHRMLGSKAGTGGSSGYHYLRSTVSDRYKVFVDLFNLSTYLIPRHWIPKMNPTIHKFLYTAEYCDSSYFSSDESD
Procedure: A172 cells were seeded in 96-well plates (12500 cells/well), treated with increasing concentrations of compounds and incubated for 16-18 h at 37° C., 5% CO2. Then TCA was added to the supernatant to stop the reaction. […] Kynurenine concentrations were determined by measuring absorbance at 480 nm. The reaction was run with single replicate.
THP-1 cells were stimulated with 2 ng/ml PMA for 24 h, then seeded in 96-well plates (100,000 cells/well), treated with 2 ng/ml PMA and increasing concentrations of compounds, and incubated for 24 h. Kynurenine concentrations were determined as described above. The reaction was run with single replicate.

[4] = system: PancO2 pancreas cancer cells; assay: PancO2 syngeneic model survival, combination with anti-CTLA4 antibody; assay type: in vivo, C57/Bl6 mice; settings: dead when tumor size reached 400 mm^3, anti-CTLA4 200 μg i.p., Compound 2 100 mg/kg BID
Procedure: In vivo efficacy studies of IDO1 inhibitor were performed on PancO2 syngeneic tumor model of C57/Bl6 mice implanted sub-cutaneously essentially as described in Example II.5. Five million PancO2 pancreas cancer cells were implanted sub-cutaneously to 7 weeks old C57/Bl6 mice (day 0). […] Anti-CTLA4 (Clone 9 h10, 200 μg/mouse, i.p. in PBS) was administered at day 11, 14 and 17. […] Treatment was administered daily until the end of the study. Tumor volume was measured weekly using a caliper device and calculated with the following formula: Tumor volume=0.5×(length×width^2). Mice were considered as dead when tumor size reached 400 mm^3.

TDO2 [5] = target: T2, TDO2; assay: Human TDO2 enzymatic assay; assay type: biochemical
Procedure: The protocol was adapted from Dolusic et al, 2011. Briefly, the reaction mixture ([…]) contained TRIS buffer (50 mM, pH 7.5), methylene blue (0.125 mM), ascorbic acid (0.25 M), catalase (40 units/mL) and human recombinant TDO2 enzyme (prepared as described in Dolusic et al, 2011; 0.9 mg) with increasing concentrations of compounds (1.0 nM to […]). The reaction was run with single replicate. The reaction was initiated by the addition of the substrate L-tryptophan (1 mM).

IDO1 [6] = target: T1, IDO1; assay: IDO1 enzymatic activity by mass spectrometry assay; assay type: biochemical; settings: human enzyme; varied tryptophan and inhibitor concentrations
Procedure: (§1) The full length complementary deoxyribonucleic acid (cDNA) for human IDO1 was cloned into a pFastbac-1 based vector and the full length cDNA for mouse and dog was cloned into a pET24a based vector. […] Human IDO1 was expressed in insect cells and purified using Ni affinity column. The mouse and dog IDO1 were expressed in Escherichia coli BL21 (DE3) and purified using a Ni affinity column. To obtain non-tagged, pure, and hemin loaded IDO1, TEV protease treated and tag removed protein was incubated with 10× molar ratio of hemin (dissolved in 25 mM NaOH) to protein at 4° C. overnight followed by size exclusion chromatography (SEC) for human IDO1 and anion exchange and SEC for mouse and dog IDO1.
The inhibition of human, dog and mouse IDO1 was measured by quantitating tryptophan and the generation of kynurenine by MS. […] The HCl stops the enzyme reactions and also converts the N-formyl kynurenine to kynurenine. […] Detection of tryptophan and kynurenine was accomplished following injection of assay reaction (injection loop volume is 10 μL) onto an Agilent Graphite Type D cartridge in 0.01% trifluoroacetic acid (TFA) plus 0.09% formic acid and eluted using 80% acetonitrile, 0.09% formic acid and 0.01% TFA. […]

mouse IDO1 = mouse IDO1 (Mus musculus (Mouse), UniProt P28776); assay: IDO1 enzymatic activity by mass spectrometry assay; assay type: biochemical; settings: MS assay; geometric mean (95% confidence interval); read-out: Enzyme Activity IC50 mouse IDO1
mouse IDO1, sequence (P28776 whole entry): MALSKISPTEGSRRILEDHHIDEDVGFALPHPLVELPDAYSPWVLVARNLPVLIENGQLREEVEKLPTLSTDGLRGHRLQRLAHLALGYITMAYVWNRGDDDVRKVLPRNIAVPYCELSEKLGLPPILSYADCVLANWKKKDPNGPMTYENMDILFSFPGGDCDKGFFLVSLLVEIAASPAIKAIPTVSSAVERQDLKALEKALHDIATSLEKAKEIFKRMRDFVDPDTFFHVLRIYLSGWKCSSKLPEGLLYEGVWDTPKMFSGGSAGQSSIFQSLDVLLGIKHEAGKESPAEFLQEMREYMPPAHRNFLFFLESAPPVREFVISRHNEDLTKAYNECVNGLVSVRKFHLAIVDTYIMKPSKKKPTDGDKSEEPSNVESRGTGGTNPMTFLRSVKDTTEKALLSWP
Procedure: as §1
(§2) The inhibition of human, dog and mouse IDO1 was measured by quantitating tryptophan and the generation of kynurenine by MS. IDO1 enzyme (1 nM) was incubated with various concentrations of the inhibitor ([…] to 1 nM), in duplicate, at room temperature in […] buffer (Mg2+, Ca2+−PBS, 20 mM ascorbic acid, 10 mM methylene blue, 800 nM catalase, […]). […] The HCl stops the enzyme reactions and also converts the N-formyl kynurenine to kynurenine. […] Detection of tryptophan and kynurenine was accomplished following injection of assay reaction (injection loop volume is 10 μL) onto an Agilent Graphite Type D cartridge in 0.01% trifluoroacetic acid (TFA) plus 0.09% formic acid and eluted using 80% acetonitrile, 0.09% formic acid and 0.01% TFA. The finalized RapidFire settings were as follows: aspiration time: 600 ms or until the loop is full per the sip sensor, load time: 5000 ms, elution time: 5000 ms, and re-equilibration time: 500 ms at a flow rate of 1.5 mL/min.

dog IDO1 = dog IDO1 (Canis lupus familiaris, UniProt A0A8I3N1Y1); assay: IDO1 enzymatic activity by mass spectrometry assay; assay type: biochemical; settings: dog enzyme; varied tryptophan and inhibitor concentrations
dog IDO1, sequence (A0A8I3N1Y1 1-402): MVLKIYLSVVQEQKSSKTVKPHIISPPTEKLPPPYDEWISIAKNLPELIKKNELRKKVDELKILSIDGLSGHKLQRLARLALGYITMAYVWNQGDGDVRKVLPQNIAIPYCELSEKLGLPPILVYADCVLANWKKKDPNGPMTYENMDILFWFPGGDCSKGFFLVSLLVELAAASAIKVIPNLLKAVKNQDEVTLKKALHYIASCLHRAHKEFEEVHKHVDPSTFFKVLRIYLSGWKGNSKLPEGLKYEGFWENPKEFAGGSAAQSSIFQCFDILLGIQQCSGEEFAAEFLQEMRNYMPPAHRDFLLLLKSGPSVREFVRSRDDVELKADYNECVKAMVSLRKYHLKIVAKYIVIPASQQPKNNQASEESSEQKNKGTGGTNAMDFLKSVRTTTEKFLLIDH
Procedure: as §1, §2

CT26 tumors = assay: CT26 syngeneic colon tumor model, combination with avelumab; assay type: in vivo, Balb/c mice
From the text: FIGS. 5A-5E show combinatorial anti-tumor effects of an IDO1 inhibitor and an anti-PD-L1 (avelumab) in the sc CT26 syngeneic mouse colon tumor model in Balb/c mice. […] FIGS. 5B-5E show the individual tumor growth curves.
Avelumab is a fully human anti-PD-L1 IgG1 monoclonal antibody, and thus, is not optimized for mouse.

[7] = Compound 1 200 mg/kg BID, Avelumab 10 mg/kg

mouse TDO2, sequence (P48776 whole entry): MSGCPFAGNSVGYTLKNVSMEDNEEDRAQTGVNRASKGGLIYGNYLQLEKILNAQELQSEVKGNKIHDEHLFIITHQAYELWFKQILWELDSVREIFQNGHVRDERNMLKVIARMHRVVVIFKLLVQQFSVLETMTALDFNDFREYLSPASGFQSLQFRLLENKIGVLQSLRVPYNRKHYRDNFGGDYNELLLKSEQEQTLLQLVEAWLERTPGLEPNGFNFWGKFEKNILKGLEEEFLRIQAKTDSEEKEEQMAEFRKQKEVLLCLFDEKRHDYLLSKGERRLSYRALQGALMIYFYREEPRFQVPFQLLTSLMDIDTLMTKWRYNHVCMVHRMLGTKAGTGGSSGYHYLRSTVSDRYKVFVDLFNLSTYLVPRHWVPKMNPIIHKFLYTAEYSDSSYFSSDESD

Molecule	IC50 (mouse TDO2)	IC90 (IDO1 [1])	IC50 [2]	A172 and THP-1 cells TDO2 inhibition (TDO2 [3]; @50 μM)	inhibitory activity in any of the human or mouse TDO2 assays (TDO2 [3]; human biochemical and cellular, murine cellular, concentrations of up to 50 μM)	% Survival at Day 55 [4]	IC50 (TDO2 [5])	mechanism of inhibition, preferred model fit (IDO1 [6])	IC50 (mouse IDO1)	mechanism of inhibition, preferred model fit (dog IDO1)	tumor growth inhibition (TGI), summary (CT26 tumors)	% TGI (D15) (CT26 tumors; [7])	% TGI (D17) (CT26 tumors; [7])	% TGI (D20) (CT26 tumors; [7])
O=C1C[C@H](c2c[nH]c3ccc(F)cc23)C(=O)N1 [Compound 2, (−)-(R)-3-(5-fluoro-1H-indol-3-yl)pyrrolidine-2,5-dione]	> 50 µM	5.69 µM	0.08 ± 0.05 µM	no inhibition	did not display any significant inhibitory activity	0%	> 50 µM	uncompetitive inhibition	0.73 µM	noncompetitive inhibition				
Avelumab: fully human anti-PD-L1 IgG1 monoclonal antibody											about 50%	54%	59%	51%
